Experimental data published in the supplement of paper PMC10307832.

Compound: Cc1cc(Nc2cc(N3CCN(C)CC3)nc(Sc3ccc(NC(=O)C4CC4)cc3)n2)n[nH]1 [Tozasertib] + CCNC(=O)c1noc(-c2cc(C(C)C)c(O)cc2O)c1-c1ccc(CN2CCOCC2)cc1 [Luminespib] (partner 0.01 µM)
Assay: relative viability (nuclei count vs DMSO), 5 days (fraction); higher = more cells survive
How it was run: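 A single step with final 0.05% Triton X-100, 1% formaldehyde and 1 ug/ml Hoechst fixed the cells and stained nuclei 5 days after treatment. Lung cancer cell lines in 1536-well plates had been treated by pin tool the day after seeding with one drug alone or a fixed anchor-drug dose plus five library-drug doses (not always all listed) in √10 steps, and nuclei were counted on 4× images. Relative viability is the ratio of nuclei in treated wells to nuclei in vehicle wells, taken as the median of duplicate plates.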

With NCI-H727 the relative viability (first compound 0.004 µM) was 0.254, the relative viability (first compound 0.01265 µM) was 0.351 and the relative viability (first compound 0.04 µM) was 0.515. The relative viability (first compound 0.1265 µM) was 0.343.
NCI-H838 was tested, and the relative viability (first compound 0.004 µM) was 0.292, the relative viability (first compound 0.01265 µM) was 0.304 and the relative viability (first compound 0.04 µM) was 0.344. For the same cell line, the relative viability (first compound 0.1265 µM) was 0.295.
Work on NCI-H1355 yielded a relative viability (first compound 0.004 µM) of 0.643, a relative viability (first compound 0.01265 µM) of 0.738 and a relative viability (first compound 0.04 µM) of 0.689. For the same cell line, the relative viability (first compound 0.1265 µM) was 0.58.
In the case of NCI-H1395, the relative viability (first compound 0.004 µM) is reported as 0.595, the relative viability (first compound 0.01265 µM) is reported as 0.815 and the relative viability (first compound 0.04 µM) is reported as 0.604. The relative viability (first compound 0.1265 µM) was 0.649.
In the case of NCI-H1437, the relative viability (first compound 0.004 µM) is reported as 1.19, the relative viability (first compound 0.01265 µM) is reported as 1.1 and the relative viability (first compound 0.04 µM) is reported as 1.09. For the same cell line, the relative viability (first compound 0.1265 µM) was 1.03.
NCI-H1650 showed a relative viability (first compound 0.004 µM) of 0.199, a relative viability (first compound 0.01265 µM) of 0.2 and a relative viability (first compound 0.04 µM) of 0.223. It also gave a relative viability (first compound 0.1265 µM) of 0.197.
For NCI-H1651, the relative viability (first compound 0.004 µM) was 0.818, the relative viability (first compound 0.01265 µM) was 0.918 and the relative viability (first compound 0.04 µM) was 1. For the same cell line, the relative viability (first compound 0.1265 µM) was 0.909.
With NCI-H1666 the relative viability (first compound 0.004 µM) was 0.957, the relative viability (first compound 0.01265 µM) was 1.03 and the relative viability (first compound 0.04 µM) was 0.968. The relative viability (first compound 0.1265 µM) was 0.859.
NCI-H1734 gave a relative viability (first compound 0.004 µM) of 0.223, a relative viability (first compound 0.01265 µM) of 0.184 and a relative viability (first compound 0.04 µM) of 0.2. For the same cell line, the relative viability (first compound 0.1265 µM) was 0.167.
With NCI-H1755 the relative viability (first compound 0.004 µM) was 0.259, the relative viability (first compound 0.01265 µM) was 0.386 and the relative viability (first compound 0.04 µM) was 0.322. For the same cell line, the relative viability (first compound 0.1265 µM) was 0.413.
In the case of NCI-H1792, the relative viability (first compound 0.004 µM) is reported as 0.394, the relative viability (first compound 0.04 µM) is reported as 0.456 and the relative viability (first compound 0.1265 µM) is reported as 0.325.
Work on NCI-H1793 yielded a relative viability (first compound 0.004 µM) of 0.181, a relative viability (first compound 0.01265 µM) of 0.198 and a relative viability (first compound 0.04 µM) of 0.191. The relative viability (first compound 0.1265 µM) was 0.18.
NCI-H1915 gave a relative viability (first compound 0.004 µM) of 0.968, a relative viability (first compound 0.01265 µM) of 0.835 and a relative viability (first compound 0.04 µM) of 0.678. It also gave a relative viability (first compound 0.1265 µM) of 0.482.
NCI-H1944 showed a relative viability (first compound 0.004 µM) of 0.717, a relative viability (first compound 0.01265 µM) of 0.706 and a relative viability (first compound 0.04 µM) of 0.866. It also gave a relative viability (first compound 0.1265 µM) of 0.414.
NCI-H1975 showed a relative viability (first compound 0.004 µM) of 0.213, a relative viability (first compound 0.01265 µM) of 0.32 and a relative viability (first compound 0.04 µM) of 0.171. It also gave a relative viability (first compound 0.1265 µM) of 0.198.
In the case of NCI-H1993, the relative viability (first compound 0.004 µM) is reported as 0.755, the relative viability (first compound 0.01265 µM) is reported as 0.631 and the relative viability (first compound 0.04 µM) is reported as 0.796. For the same cell line, the relative viability (first compound 0.1265 µM) was 0.618.
For NCI-H2009, the relative viability (first compound 0.004 µM) was 1.03, the relative viability (first compound 0.01265 µM) was 0.972 and the relative viability (first compound 0.04 µM) was 1.06. It also gave a relative viability (first compound 0.1265 µM) of 1.07.
For NCI-H2023, the relative viability (first compound 0.004 µM) was 0.811, the relative viability (first compound 0.01265 µM) was 0.749 and the relative viability (first compound 0.04 µM) was 0.9. It also gave a relative viability (first compound 0.1265 µM) of 0.598.
With NCI-H2085 the relative viability (first compound 0.004 µM) was 0.473, the relative viability (first compound 0.01265 µM) was 0.428 and the relative viability (first compound 0.04 µM) was 0.442. It also gave a relative viability (first compound 0.1265 µM) of 0.457.
Cell Line NCI-H2087 has a relative viability (first compound 0.004 µM) of 0.175, a relative viability (first compound 0.01265 µM) of 0.185 and a relative viability (first compound 0.04 µM) of 0.177. The relative viability (first compound 0.1265 µM) was 0.172.
Work on NCI-H2126 yielded a relative viability (first compound 0.004 µM) of 1, a relative viability (first compound 0.01265 µM) of 0.935 and a relative viability (first compound 0.04 µM) of 0.891. For the same cell line, the relative viability (first compound 0.1265 µM) was 0.865.
NCI-H2170 showed a relative viability (first compound 0.004 µM) of 0.708, a relative viability (first compound 0.01265 µM) of 0.767 and a relative viability (first compound 0.04 µM) of 0.744. It also gave a relative viability (first compound 0.1265 µM) of 0.689.
With NCI-H2228 the relative viability (first compound 0.004 µM) was 0.216, the relative viability (first compound 0.01265 µM) was 0.167 and the relative viability (first compound 0.04 µM) was 0.204. The relative viability (first compound 0.1265 µM) was 0.167.
For NCI-H2342, the relative viability (first compound 0.004 µM) was 0.646, the relative viability (first compound 0.04 µM) was 0.697 and the relative viability (first compound 0.1265 µM) was 0.767.
With NCI-H2347 the relative viability (first compound 0.004 µM) was 0.326, the relative viability (first compound 0.04 µM) was 0.39 and the relative viability (first compound 0.1265 µM) was 0.346.
NCI-H2405 gave a relative viability (first compound 0.004 µM) of 0.673, a relative viability (first compound 0.01265 µM) of 0.67 and a relative viability (first compound 0.04 µM) of 0.58. It also gave a relative viability (first compound 0.1265 µM) of 0.712.
In the case of NCI-H3122, the relative viability (first compound 0.004 µM) is reported as 0.0858, the relative viability (first compound 0.01265 µM) is reported as 0.0879 and the relative viability (first compound 0.04 µM) is reported as 0.1. For the same cell line, the relative viability (first compound 0.1265 µM) was 0.101.
Cell Line PC-3 [JPC-3] has a relative viability (first compound 0.004 µM) of 0.625, a relative viability (first compound 0.01265 µM) of 0.699 and a relative viability (first compound 0.04 µM) of 0.814. It also gave a relative viability (first compound 0.1265 µM) of 0.71.
Cell Line PC-14 has a relative viability (first compound 0.01265 µM) of 0.114, a relative viability (first compound 0.04 µM) of 0.179 and a relative viability (first compound 0.1265 µM) of 0.129.
Cell Line RERF-LC-KJ has a relative viability (first compound 0.004 µM) of 1.3, a relative viability (first compound 0.01265 µM) of 1.21 and a relative viability (first compound 0.04 µM) of 1.2. The relative viability (first compound 0.1265 µM) was 0.983.
Work on SK-LU-1 yielded a relative viability (first compound 0.004 µM) of 0.242, a relative viability (first compound 0.01265 µM) of 0.211 and a relative viability (first compound 0.04 µM) of 0.197. The relative viability (first compound 0.1265 µM) was 0.191.
SK-MES-1 showed a relative viability (first compound 0.004 µM) of 0.921, a relative viability (first compound 0.01265 µM) of 0.731 and a relative viability (first compound 0.04 µM) of 0.82. For the same cell line, the relative viability (first compound 0.1265 µM) was 0.82.
With SW 900 the relative viability (first compound 0.004 µM) was 0.167, the relative viability (first compound 0.01265 µM) was 0.188 and the relative viability (first compound 0.04 µM) was 0.205. For the same cell line, the relative viability (first compound 0.1265 µM) was 0.173.
SW 1573 was tested, and the relative viability (first compound 0.004 µM) was 0.25, the relative viability (first compound 0.01265 µM) was 0.239 and the relative viability (first compound 0.04 µM) was 0.139. For the same cell line, the relative viability (first compound 0.1265 µM) was 0.228.
Cell Line UMC-11 has a relative viability (first compound 0.004 µM) of 1.02, a relative viability (first compound 0.01265 µM) of 0.983 and a relative viability (first compound 0.1265 µM) of 0.422.
